In US8455440B2, “Combination anticoagulant therapy with a compound that acts as a factor Xa inhibitor” (Millennium Pharmaceuticals, Inc., priority 2007, dated 2013):

Columns and labels:
human whole blood = assay: Real time perfusion chamber: whole blood perfused over collagen and tissue factor coated surface; format: cell-based; conditions: shear rate 300 s^−1, five donors
Protocol: After the perfusion, the thrombotic activity was quantified by measurement of labeled fibrin produced as a result of fibrinogen cleavage during the activation of platelets and the blood coagulation system. For this series of experiments in five healthy human volunteers, blood was obtained by venipuncture and treated with 2.4 μM eptifibatide. The dose of eptifibatide corresponds to the plasma concentration attained by therapeutic concentrations of the GPIIb/IIIa inhibitor.

[1] = system: clotting times (prothrombin time, PT and activated partial thromboplastin times, aPTT); assay: Ex vivo clotting times (PT, aPTT) in the rat thrombosis model
Protocol: (§1) In this experiment, the ability of Compound A to maintain vessel patency under arterial flow conditions in ferric chloride induced thrombosis in rat carotid artery is compared to that achieved by clopidogrel. Compound A was administered by intravenous infusions and clopidogrel was dosed orally for three days. Ex vivo platelet aggregation induced by 10 μM ADP and clotting times (prothrombin time, PT and activated partial thromboplastin times, aPTT) were measured over the experimental time course (90 min) in all animals.
as §1, with “The combination effect of an anticoagulant and anti-platelet agent, aspirin, was investigated in an in vivo model of thrombosis. […] In” for “In”, “aspirin.” for “clopidogrel.”, “aspirin” for “clopidogrel”, “administered as an intravenous bolus approximately 30 min prior to the start of the experiment.” for “dosed orally for three days.”, “μg/mL of collagen” for “μM ADP”

[2] = Compound A 0.03 μM, aspirin 3 mg/kg, or both

COc1ccc(NC(=O)c2ccc(C(=N)N(C)C)cc2)c(C(=O)Nc2ccc(Cl)cn2)c1 [Compound A, [2-({4-[(dimethylamino)iminomethyl]phenyl}carbonylamino)-5-methoxyphenyl]-N-(5-chloro(2-pyridyl))carboxamide]
Mean Fluorescence (human whole blood; 10 nM Compound A + 2.4 μM eptifibatide): 107.7 | Mean Fluorescence (human whole blood; 25 nM Compound A + 2.4 μM eptifibatide): 85.0 | Mean Fluorescence (human whole blood; 50 nM Compound A + 2.4 μM eptifibatide): 64.5 | Mean Fluorescence (human whole blood; 75 nM Compound A + 2.4 μM eptifibatide): 34.7 | Mean Fluorescence (human whole blood; 100 nM Compound A + 2.4 μM eptifibatide): 33.0 | PT ratio ([1]; 0.03 μM Compound A): 1.08 | PT ratio ([1]; 0.1 μM Compound A): 1.19 | PT ratio ([1]; 0.3 μM Compound A): 1.33 | APTT Ratio [1, 2]: 1.08 | PT ratio [1, 2]: 1.07 | change in PT ([1]; therapeutic dose of the single agent): 33%
